Patent publication US20090099376A1, “TIGECYCLINE AND METHODS OF PREPARING INTERMEDIATES” (Wyeth, priority 2007, published 2009)
Values after ≈ are worked out from the molar mass of the structure shown.

What was measured:
[1] = Solubility at RT in hydrogenation solvent mixtures doped with IPA; format: physicochemical
From the text: An investigation by examining the solubility characteristics of 9-nitrominocycline and 9-aminominocycline sulfate in the presence of various amounts of IPA to gauge whether the starting material and/or product could in fact precipitate out in the reaction solvent was initiated.

[2] = Dynamic vapor sorption (DVS) study; format: physicochemical; conditions: RH 90%
From the text: As a comparison, we ran the DVS on 9-nitrominocycline. This intermediate picks up to 40% by weight of water at RH 90%.

[3] = tested on: methicillin-resistant Staphylococcus aureus; conditions: cited from earlier work
[4] = tested on: penicillin-resistant Streptococcus pneumoniae; conditions: cited from earlier work
[5] = tested on: organisms carrying either of the two major forms of tetracycline resistance: efflux and ribosomal protection; conditions: organisms with tetracycline resistance by efflux or ribosomal protection; cited from earlier work
[6] = tested on: vancomycin-resistant enterococci; conditions: cited from earlier work
[7] = 80:20 water:methanol with 20% wt/wt IPA, aqueous with cosolvent or surfactant or cyclodextrin, Exp. 8: +20% wt/wt IPA, 80:20 water:methanol
[8] = 80:20 water:methanol with 35% wt/wt IPA, aqueous with cosolvent or surfactant or cyclodextrin, Exp. 9: +35% wt/wt IPA, 80:20 water:methanol
[9] = 80:20 water:methanol with 50% wt/wt IPA, aqueous with cosolvent or surfactant or cyclodextrin, Exp. 10: +50% wt/wt IPA, 80:20 water:methanol
[10] = v:v) with 0% wt/wt IPA, organic solvent or mixture, Exp. 1: MeOH:water (99:1, v:v) +0% wt/wt IPA
[11] = v:v) with 4% wt/wt IPA, organic solvent or mixture, Exp. 2: MeOH:water (99:1, v:v) +4% wt/wt IPA
[12] = v:v) with 20% wt/wt IPA, organic solvent or mixture, Exp. 3: MeOH:water (99:1, v:v) +20% wt/wt IPA
[13] = v:v) with 35% wt/wt IPA, organic solvent or mixture, Exp. 4: MeOH:water (99:1, v:v) +35% wt/wt IPA
[14] = v:v) with 50% wt/wt IPA, organic solvent or mixture, Exp. 5: MeOH:water (99:1, v:v) +50% wt/wt IPA

Solubility (in words) ([1]; 80:20 water:methanol)	solubility ([1]; 80:20 water:methanol with 0% wt/wt IPA, aqueous with cosolvent or surfactant or cyclodextrin, Exp. 6: +0% wt/wt IPA, 80:20 water:methanol) [mg/mL]	solubility ([1]; 80:20 water:methanol with 4% wt/wt IPA, aqueous with cosolvent or surfactant or cyclodextrin, Exp. 7: +4% wt/wt IPA, 80:20 water:methanol) [mg/mL]	solubility [1, 7] [mg/mL]	solubility [1, 8] [mg/mL]	solubility [1, 9] [mg/mL]	solubility [1, 10] [mg/mL]	solubility [1, 11] [mg/mL]	solubility [1, 12] [mg/mL]	solubility [1, 13] [mg/mL]	solubility [1, 14] [mg/mL]	Water uptake in DVS [2]	Solubility (in words) ([1]; 99:1 methanol:water)	Solubility at RT ([1]; Exp. 6: +0% wt/wt IPA, 80:20 water:methanol)	Solubility at RT ([1]; Exp. 7: +4% wt/wt IPA, 80:20 water:methanol)	solubility ([1]; organic solvent or mixture, Exp. 11: IPA Only) [mg/mL]	Structure (SMILES)	Antibacterial activity [3]	Antibacterial activity [4]	Antibacterial activity [5]	Antibacterial activity [6]
fairly high	> 421	> 426	> 453	> 303	333 (≈ 663 mM)	> 466	129 (≈ 257 mM)	68 (≈ 135 mM)	30 (≈ 59.7 mM)	23 (≈ 45.8 mM)	up to 40 % by weight					CN(C)c1cc([N+](=O)[O-])c(O)c2c1C[C@H]1C[C@H]3[C@H](N(C)C)C(O)=C(C(N)=O)C(=O)[C@@]3(O)C(O)=C1C2=O [9-nitrominocycline]				
																CN(C)c1cc(NC(=O)CNC(C)(C)C)c(O)c2c1C[C@H]1C[C@H]3[C@H](N(C)C)C(O)=C(C(N)=O)C(=O)[C@@]3(O)C(O)=C1C2=O [Tigecycline, (4S,4aS,5aR,12aS)-9-[2-(tert-butylamino)acetamido]-4,7-bis(dimethylamino)-1,4,4a,5,5a,6,11,12a-octahydro-3,10,12,12a-tetrahydroxy-1,11-dioxo-2-naphthacenecarboxamide]	active	active	active	active
high			243 (≈ 514 mM)	103 (≈ 218 mM)	58 (≈ 123 mM)	14 (≈ 29.6 mM)	16 (≈ 33.9 mM)	12 (≈ 25.4 mM)	9 (≈ 19 mM)	7 (≈ 14.8 mM)		somewhat low	high	high	1 (≈ 2.12 mM)	CN(C)c1cc(N)c(O)c2c1C[C@H]1C[C@H]3[C@H](N(C)C)C(O)=C(C(N)=O)C(=O)[C@@]3(O)C(O)=C1C2=O [9-aminominocycline]				
